Assays:
[1] = molecular target: GST-tagged K-Ras mutant / His-tagged hSOS1 (Homo sapiens, UniProt P01116); experiment: HTRF assay, K-Ras mutant / SOS1 interaction; assay type: binding; conditions: compound nos. 401-703; read-out: IC50 against mutant Kras
How it was run: (§1)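 Compounds tested in duplicate from 10 μM down to 0.01 μM, incubated about 10 min or longer with GST-K-Ras/anti-GST-Eu and His-hSOS1/anti-6His-XL665 in ~5 mM HEPES pH 7.4 buffer with ~150 mM NaCl, DTT, BSA and Igepal. IC50 derived from 665/620 nm emission ratio.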

[2] = molecular target: T1, wildtype Kras / hSOS1 (Homo sapiens, UniProt P01116); experiment: HTRF assay, wildtype Kras / SOS1 interaction; assay type: binding; conditions: compound nos. 401-703; read-out: IC50 against wildtype Kras
T1 construct: made in house; host or cells: E. coli BL21 (DE3)
How it was run: as §1

T1 sequence (P01116 1-188 isoform P01116-2): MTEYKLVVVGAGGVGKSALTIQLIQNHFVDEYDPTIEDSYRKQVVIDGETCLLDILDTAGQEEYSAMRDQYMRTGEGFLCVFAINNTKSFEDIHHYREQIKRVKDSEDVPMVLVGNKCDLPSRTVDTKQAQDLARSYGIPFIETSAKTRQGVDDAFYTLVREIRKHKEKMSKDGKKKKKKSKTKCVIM
GST-tagged K-Ras mutant / His-tagged hSOS1, sequence (P01116 whole entry G12D, form open): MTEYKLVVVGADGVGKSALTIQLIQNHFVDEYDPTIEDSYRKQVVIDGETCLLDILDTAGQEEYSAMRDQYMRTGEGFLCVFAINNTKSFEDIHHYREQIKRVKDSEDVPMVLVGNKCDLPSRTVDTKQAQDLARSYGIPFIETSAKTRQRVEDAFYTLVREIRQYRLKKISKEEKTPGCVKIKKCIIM

Compound | IC50 [1] [nM] | IC50 [2] [nM]
Fc1c(N2CCCCc3ccccc32)ccc2c(N3CCCCCC3)nc(OCC34CCCN3CCC4)nc12 [Compound 548, 1-(4-(azepan-1-yl)-8-fluoro-2-((tetrahydro-1H-pyrrol-izin-7a(5H)-yl)methoxy)-quinazolin-7-yl)-2,3,4,5-tetrahydro-1H-benzo[b]-azepine] | > 500 | > 500
CC1CCCCN(c2nc(OC[C@@H]3CCCN3C)nc3c(F)c(-c4cccc5sc(N)nc45)c(Cl)cc23)C1 (stereo partly drawn) [Compound 550, 4-(6-chloro-8-fluoro-4-(3-methylazepan-1-yl)-2-(((S)-1-methylpyrrolidin-2-yl)-methoxy)quinazolin-7-yl)-benzo[d]thiazol-2-amine] | < 500 | > 500
N#CN1CCN(c2nc(OCC34CCCN3CCC4)nc3c(F)c(-c4ccc(F)c5sc(N)nc45)c(Cl)cc23)CC(F)(F)C1 [Compound 551, 4-(7-(2-amino-7-fluorobenzo[d]thiazol-4-yl)-6-chloro-8-fluoro-2-((tetrahydro-1H-pyrrolizin-7a(5H)-yl)methoxy)quinazolin-4-yl)-6,6-difluoro-1,4-diazepane-1-carbonitrile] | < 500 | > 500
N#Cc1c(N)sc2cccc(-c3c(Cl)cc4c(N5CC6CCC(C5)N6)nc(OC[C@@]56CCCN5C[C@H](F)C6)nc4c3F)c12 [Compound 552, 4-(4-(3,8-diazabicyclo-[3.2.1]octan-3-yl)-6-chloro-8-fluoro-2-(((2R,7aS)-2-fluorotetrahydro-1H-pyrrol-izin-7a(5H)-yl)methoxy)-quinazolin-7-yl)-2-amino-benzo[b]thiophene-3-carbonitrile] | < 500 | > 500
CN1CCC[C@H]1COc1nc(N2CCCC(NC3CNC3)CC2)c2cc(Cl)c(-c3cccc4sc(N)nc34)c(F)c2n1 (stereo partly drawn) [Compound 554, 4-(4-(4-(azetidin-3-yl-amino)azepan-1-yl)-6-chloro-8-fluoro-2-(((S)-1-methylpyrrolidin-2-yl)-methoxy)quinazolin-7-yl)-benzo[d]thiazol-2-amine] | > 500 | > 500
Nc1nc2c(-c3c(Cl)cc4c(N5CCNCC(F)(F)C5)nc(OCCCN5CCCC5)nc4c3F)ccc(F)c2s1 [Compound 555, 4-(6-chloro-4-(6,6-difluoro-1,4-diazepan-1-yl)-8-fluoro-2-(3-(pyrrolidin-1-yl)-propoxy)quinazolin-7-yl)-7-fluorobenzo[d]thiazol-2-amine] | < 500 | > 500
Nc1nc2c(-c3c(Cl)cc4c(N5CC6CNC(C6)C5)nc(OC[C@@]56CCCN5C[C@H](F)C6)nc4c3F)ccc(F)c2s1 (stereo partly drawn) [Compound 556, 4-(4-(3,6-diazabicyclo-[3.2.1]octan-3-yl)-6-chloro-8-fluoro-2-(((2R,7aS)-2-fluorotetrahydro-1H-pyrrol-izin-7a(5H)-yl)methoxy)-quinazolin-7-yl)-7-fluoro-benzo[d]thiazol-2-amine] | < 500 | > 500
N#Cc1c(N)sc2c(F)ccc(-c3c(Cl)cc4c(N5CCCNCC5)nc(OC[C@@]56CCCN5C[C@H](F)C6)nc4c3F)c12 [Compound 557, 2-amino-4-(6-chloro-4-(1,4-diazepan-1-yl)-8-fluoro-2-(((2R,7aS)-2-fluorotetra-hydro-1H-pyrrolizin-7a(5H)-yl)methoxy)quinazolin-7-yl)-7-fluorobenzo[b]thio-phene-3-carbonitrile] | < 500 | > 500
CN1CCC[C@H]1COc1nc(N2CCCC(NC3CC3)CC2)c2cc(Cl)c(-c3cccc4sc(N)nc34)c(F)c2n1 (stereo partly drawn) [Compound 559, 4-(6-chloro-4-(4-(cyclo-propylamino)azepan-1-yl)-8-fluoro-2-(((S)-1-methyl-pyrrolidin-2-yl)methoxy)-quinazolin-7-yl)benzo[d]-thiazol-2-amine] | > 500 | > 500
CN1CCC[C@H]1COc1nc(N2CCCCC(O)C2)c2cc(Cl)c(-c3cccc4sc(N)nc34)c(F)c2n1 (stereo partly drawn) [Compound 562, 1-(7-(2-aminobenzo[d]-thiazol-4-yl)-6-chloro-8-fluoro-2-(((S)-1-methyl-pyrrolidin-2-yl)methoxy)-quinazolin-4-yl)azepan-3-ol] | < 500 | > 500
Nc1nc2c(-c3c(Cl)cc4c(N5CC6CCNCC6C5)nc(OC[C@@]56CCCN5C[C@H](F)C6)nc4c3F)ccc(F)c2s1 (stereo partly drawn) [Compound 566, 4-(6-chloro-8-fluoro-2-(((2R,7aS)-2-fluorotetra-hydro-1H-pyrrolizin-7a(5H)-yl)methoxy)-4-(octahydro-2H-pyrrolo[3,4-c]pyridin-2-yl)quinazolin-7-yl)-7-fluoro-benzo[d]thiazol-2-amine] | < 500 | > 500
Nc1nc2c(-c3c(Cl)cc4c(N5C6CCNCC5CC6)nc(OC[C@@]56CCCN5C[C@H](F)C6)nc4c3F)ccc(F)c2s1 (stereo partly drawn) [Compound 568, 4-(4-(3,9-diazabicyclo-[4.2.1]-nonan-9-yl)-6-chloro-8-fluoro-2-(((2R,7aS)-2-fluorotetrahydro-1H-pyrrol-izin-7a(5H)-yl)methoxy)-quinazolin-7-yl)-7-fluoro-benzo[d]thiazol-2-amine] | < 500 | > 500
Nc1nc2c(-c3c(Cl)cc4c(N5CC6CNCC6C5)nc(OC[C@@]56CCCN5C[C@H](F)C6)nc4c3F)ccc(F)c2s1 (stereo partly drawn) [Compound 569, 4-(6-chloro-8-fluoro-2-(((2R,7aS)-2-fluorotetra-hydro-1H-pyrrolizin-7a(5H)-yl)methoxy)-4-(hexahydro-pyrrolo[3,4-c]pyrrol-2(1H)-yl)quinazolin-7-yl)-7-fluoro-benzo[d]thiazol-2-amine] | < 500 | > 500

Now from value to compound:

IC50 [1] [nM] | IC50 [2] [nM] | Compound
> 500 | > 500 | Cc1ccc2cnn(CC#N)c2c1-c1c(Cl)cc2c(N3CC4CCC(C3)N4)nc(OC[C@@]34CCCN3C[C@H](F)C4)nc2c1F [Compound 549, 2-(7-(4-(3,8-diazabicyclo-[3.2.1]octan-3-yl)-6-chloro-8-fluoro-2-(((2R,7aS)-2-fluorotetrahydro-1H-pyrrol-izin-7a(5H)-yl)methoxy)-quinazolin-7-yl)-6-methyl-1H-indazol-1-yl)acetonitrile]
< 500 | > 500 | Nc1nc2c(-c3c(Cl)cc4c(N5CC6CCC(C5)N6)nc(OCC5(CN6CCCC6)CC5)nc4c3F)ccc(F)c2s1 [Compound 553, 4-(4-(3,8-diazabicyclo-[3.2.1]-octan-3-yl)-6-chloro-8-fluoro-2-((1-(pyrrolidin-1-ylmethyl)cyclopropyl)meth-oxy)quinazolin-7-yl)-7-fluorobenzo[d]thiazol-2-amine]
> 500 | > 500 | N#Cc1ccc2ccccc2c1-c1c(Cl)cc2c(N3CC4CCC(C3)N4)nc(OC[C@@]34CCCN3C[C@H](F)C4)nc2c1F [Compound 558, 1-(4-(3,8-diazabicyclo-[3.2.1]octan-3-yl)-6-chloro-8-fluoro-2-(((2R,7aS)-2-fluorotetrahydro-1H-pyrrol-izin-7a(5H)-yl)methoxy)-quinazolin-7-yl)-2-naph-thonitrile]
> 500 | > 500 | Fc1c(-c2cccc3ccsc23)c(Cl)cc2c(N3CC4CCC(C3)N4)nc(OC[C@@]34CCCN3C[C@H](F)C4)nc12 [Compound 560, 7-(benzo[b]thiophen-7-yl)-4-(3,8-diazabicyclo[3.2.1]-octan-3-yl)-6-chloro-8-fluoro-2-(((2R,7aS)-2-fluorotetrahydro-1H-pyrrol-izin-7a(5H)-yl)methoxy)-quinazoline]
> 500 | > 500 | Cc1ccc2[nH]nc(C#N)c2c1-c1ccc2c(N3CC4CCC(C3)N4)nc(OC[C@@]34CCCN3C[C@H](F)C4)nc2c1F [Compound 561, 4-(4-(3,8-diazabicyclo-[3.2.1]octan-3-yl)-8-fluoro-2-(((2R,7aS)-2-fluorotetra-hydro-1H-pyrrolizin-7a(5H)-yl)methoxy)quinazolin-7-yl)-5-methyl-1H-indazole-3-carbonitrile]
> 500 | > 500 | Nc1c(F)ccc(-c2c(Cl)cc3c(N4CC5CCC(C4)N5)nc(OCC45CCCN4CCC5)nc3c2F)c1F [Compound 563, 3-(4-(3,8-diazabicyclo-[3.2.1]octan-3-yl)-6-chloro-8-fluoro-2-((tetrahydro-1H-pyrrolizin-7a(5H)-yl)meth-oxy)quinazolin-7-yl)-2,6-difluoroaniline]
> 500 | > 500 | Nc1cc(-c2c(Cl)cc3c(N4CC5CCC(C4)N5)nc(OCC45CCCN4CCC5)nc3c2F)c2ccccc2c1 [Compound 564, 4-(4-(3,8-diazabicyclo-[3.2.1]octan-3-yl)-6-chloro-8-fluoro-2-((tetrahydro-1H-pyrrolizin-7a(5H)-yl)meth-oxy)quinazolin-7-yl)naph-thalen-2-amine]
< 500 | > 500 | CN1CCC[C@H]1COc1nc(N2CC3CCC(C2)N3)c2cc(Cl)c(-c3cccc4sc(N)nc34)c(F)c2n1 [Compound 565, 4-(4-(3,8-diazabicyclo-[3.2.1]octan-3-yl)-6-chloro-8-fluoro-2-(((S)-1-methyl-pyrrolidin-2-yl)methoxy)-quinazolin-7-yl)benzo[d]-thiazol-2-amine]
> 500 | > 500 | Cc1ccnc(C(C)C)c1-n1c(=O)nc(N2CC3CCC(C2)N3)c2cc(F)c(-c3cc(O)cc4ccccc34)nc21 [Compound 567, 4-(3,8-diazabicyclo[3.2.1]-octan-3-yl)-6-fluoro-7-(3-hydroxynaphthalen-1-yl)-1-(2-isopropyl-4-methylpyri-din-3-yl)pyrido[2,3-d]pyrim-idin-2(1H)-one]
